According to ChEMBL document CHEMBL5365478, “Structure-Based Design and Synthesis of Stapled 10Panx1 Analogues for Use in Cardiovascular Inflammatory Diseases” (J Med Chem, 2023):
Blank lines part the entries; values can stand above or below the compound they belong to. Activity calls are given as the source filed them. The rule behind the calls is not given here. Bridge positions count the residues as written; N and C are the ends. Square brackets hold non-standard residues; d marks the D form. Triazole bridges read from a SMILES are 1,4-linked. Peptide text beside a SMILES is read from it. Lys(N3) = [N-]=[N+]=NCCCC[C@H](N)C(=O)O; Orn(N3) = [N-]=[N+]=NCCC[C@H](N)C(=O)O; Hpra = C#CCC[C@H](N)C(=O)O; Pra = C#CC[C@H](N)C(=O)O; Ahx = NCCCCCC(=O)O

Columns and labels:
[1] = target: Pannexin-1 (Rattus norvegicus) (UniProt P60570); assay: Inhibition of PANX1 in rat H9C2 cells assessed as reduction in HOS-induced ATP release at 12.5 to 100 uM preincubated for 10 mins followed by HOS solution addition and measured after 30 mins by bioluminescence analysis; type: cell-based; details: dose 12.5-100 µM, time 40.0 min
Pannexin-1 (Rattus norvegicus), sequence (P60570 whole entry): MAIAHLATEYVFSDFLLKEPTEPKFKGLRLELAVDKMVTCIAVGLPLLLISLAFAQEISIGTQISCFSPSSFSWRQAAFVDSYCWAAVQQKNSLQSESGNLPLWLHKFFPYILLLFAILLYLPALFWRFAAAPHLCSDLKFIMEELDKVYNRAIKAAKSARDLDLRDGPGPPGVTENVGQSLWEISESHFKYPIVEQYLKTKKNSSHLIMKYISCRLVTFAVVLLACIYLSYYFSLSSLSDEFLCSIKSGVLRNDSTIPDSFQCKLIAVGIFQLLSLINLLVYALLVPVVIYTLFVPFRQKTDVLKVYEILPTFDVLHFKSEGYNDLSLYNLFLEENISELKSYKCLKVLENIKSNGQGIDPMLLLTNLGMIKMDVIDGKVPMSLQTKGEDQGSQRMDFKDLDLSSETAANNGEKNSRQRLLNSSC

[2] = Stability in PBS at pH 7.4 assessed as conserved alpha-helical profile at 200 uM at 20 to 90 degreeC by CD spectra analysis; type: physicochemical; details: buffer, pH 7.4, 200 µM
[3] = system: EA.hy 926; assay: Antiinflammatory activity in TNF-alpha stimulated human EA.hy926 cells cocultured with human THP-1 cells assessed as inhibition of monocyte adhesion at 100 uM incubated for 15 mins followed by adhesion for 2 hrs; type: functional, cell-based; details: time 135.0 min
[4] = target: Pannexin-1 (Homo sapiens) (UniProt Q96RD7); assay: Inhibition of PANX1 in human EA.hy 926 cells assessed as reduction in HOS-induced ATP release at 12.5 to 100 uM preincubated for 10 mins followed by HOS solution addition and measured after 30 mins by bioluminescence analysis; type: cell-based; details: dose 12.5-100 µM, time 40.0 min
Pannexin-1 (Homo sapiens), sequence (Q96RD7 whole entry): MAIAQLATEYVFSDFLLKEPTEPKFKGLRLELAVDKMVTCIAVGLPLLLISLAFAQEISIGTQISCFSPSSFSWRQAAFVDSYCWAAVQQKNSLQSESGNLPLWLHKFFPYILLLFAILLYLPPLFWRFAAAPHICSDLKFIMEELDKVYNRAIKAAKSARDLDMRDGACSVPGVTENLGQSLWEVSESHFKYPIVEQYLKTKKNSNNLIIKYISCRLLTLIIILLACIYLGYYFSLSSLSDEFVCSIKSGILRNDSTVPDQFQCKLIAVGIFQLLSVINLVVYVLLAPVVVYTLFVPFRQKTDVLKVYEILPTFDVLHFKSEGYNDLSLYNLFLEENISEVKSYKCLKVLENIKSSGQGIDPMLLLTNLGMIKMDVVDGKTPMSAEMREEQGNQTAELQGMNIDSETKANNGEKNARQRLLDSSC

[5] = system: EA.hy 926; assay: Cytotoxicity against human EA.hy 926 cells at 12.5 to 100 uM incubated for 30 mins with compound in HOS solution by LDH assay; type: toxicity, cell-based; details: ea.hy 926, 0.5 h, dose 12.5-100 µM
[6] = target: Pannexin-1 (Mus musculus) (UniProt Q9JIP4); assay: Inhibition of PANX1 in mouse B16-BL6 cells assessed as reduction in HOS-induced Yo-Pro-1 uptake by measuring reduction in green fluorescence at 12.5 uM preincubated for 10 mins followed by HOS solution addition and measured after 30 mins by fluorescence based analysis; type: cell-based; details: time 40.0 min
Pannexin-1 (Mus musculus), sequence (Q9JIP4 whole entry): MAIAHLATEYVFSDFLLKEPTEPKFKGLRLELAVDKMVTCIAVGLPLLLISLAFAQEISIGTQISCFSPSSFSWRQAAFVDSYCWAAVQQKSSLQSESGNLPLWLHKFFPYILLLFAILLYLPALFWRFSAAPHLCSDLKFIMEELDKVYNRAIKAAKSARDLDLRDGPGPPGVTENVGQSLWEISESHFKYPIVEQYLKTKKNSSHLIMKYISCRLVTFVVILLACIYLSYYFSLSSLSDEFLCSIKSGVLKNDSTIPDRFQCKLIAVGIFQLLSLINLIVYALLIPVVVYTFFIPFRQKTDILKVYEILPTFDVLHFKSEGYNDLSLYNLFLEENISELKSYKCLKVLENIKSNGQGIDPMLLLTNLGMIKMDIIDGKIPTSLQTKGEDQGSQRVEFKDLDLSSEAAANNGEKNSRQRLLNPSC

[7] = target: Pannexin-1 (Mus musculus) (UniProt Q9JIP4); assay: Inhibition of PANX1 in mouse B16-BL6 cells assessed as reduction in HOS-induced ATP release at around 10 nM preincubated for 10 mins followed by HOS solution addition and measured after 30 mins by bioluminescence analysis; type: cell-based; details: time 40.0 min
[8] = target: Pannexin-1 (Mus musculus) (UniProt Q9JIP4); assay: Inhibition of PANX1 in mouse B16-BL6 cells assessed as reduction in HOS-induced ATP release preincubated for 10 mins followed by HOS solution addition and measured after 30 mins by bioluminescence analysis; type: cell-based; details: dose 6.25-400 µM, time 40.0 min
[9] = system: B16-BL6; assay: Cytotoxicity against mouse B16-BL6 cells at 6.25 to 100 uM incubated for 30 mins with compound in HOS solution by LDH assay; type: toxicity, cell-based; details: b16-bl6, 0.5 h, dose 6.25-100 µM
[10] = system: B16-BL6; assay: Cytotoxicity against mouse B16-BL6 cells at 1.56 to 100 uM incubated for 30 mins with compound in HOS solution by LDH assay; type: toxicity, cell-based; details: b16-bl6, 0.5 h, dose 1.56-100 µM
[11] = target: Pannexin-1 (Mus musculus) (UniProt Q9JIP4); assay: Inhibition of PANX1 in mouse B16-BL6 cells assessed as reduction in HOS-induced ATP release at 100 uM preincubated for 10 mins followed by HOS solution addition and measured after 30 mins by bioluminescence analysis; type: cell-based; details: time 40.0 min
[12] = target: Pannexin-1 (Homo sapiens) (UniProt Q96RD7); assay: Inhibition of PANX1 in human EA.hy 926 cells assessed as reduction in HOS-induced ATP release preincubated for 10 mins followed by HOS solution addition and measured after 30 mins by bioluminescence analysis; type: cell-based; details: time 40.0 min
[13] = system: B16-BL6; assay: Cytotoxicity against mouse B16-BL6 cells at 2.5 mM incubated for 30 mins with compound in HOS solution by LDH assay; type: toxicity, cell-based; details: b16-bl6, 0.5 h, 2500 µM
[14] = target: Pannexin-1 (Mus musculus) (UniProt Q9JIP4); assay: Inhibition of PANX1 in mouse B16-BL6 cells assessed as reduction in HOS-induced Yo-Pro-1 uptake by measuring reduction in green fluorescence at 2.5 mM preincubated for 10 mins followed by HOS solution addition and measured after 30 secs to 30 mins by fluorescence based analysis; type: cell-based; details: time 10.5-40 min
[15] = target: Pannexin-1 (Homo sapiens) (UniProt Q96RD7); assay: Inhibition of PANX1 in human EA.hy 926 cells assessed as reduction in HOS-induced ATP release at 2.5 mM preincubated for 10 mins followed by HOS solution addition and measured after 30 mins by bioluminescence analysis; type: cell-based; details: time 40.0 min
[16] = target: Pannexin-1 (Rattus norvegicus) (UniProt P60570); assay: Inhibition of PANX1 in rat H9C2 cells assessed as reduction in HOS-induced ATP release at 2.5 mM preincubated for 10 mins followed by HOS solution addition and measured after 30 mins by bioluminescence analysis; type: cell-based; details: time 40.0 min

SMILES: CC(=O)N[C@H]1Cc2cn(nn2)CCCC[C@@H](C(=O)N[C@@H](C)C(=O)N[C@@H](Cc2ccccc2)C(=O)N[C@H](C(=O)N[C@@H](CC(=O)O)C(=O)N[C@@H](CO)C(=O)N[C@@H](Cc2ccc(O)cc2)C(N)=O)C(C)C)NC(=O)[C@H](CCC(N)=O)NC(=O)[C@H](CCCNC(=N)N)NC(=O)[C@H](Cc2c[nH]c3ccccc23)NC1=O
inhibition [1]: inactive | inhibition [3]: Active | inhibition [4]: Active | Activity [5]: Non-Toxic | inhibition [6]: inactive | inhibition [8]: Dose-Dependent Effect | Activity [9]: Non-Toxic

SMILES: CC(=O)N[C@H]1Cc2cn(nn2)CCCC[C@H](C(=O)N[C@@H](C)C(=O)N[C@@H](Cc2ccccc2)C(=O)N[C@H](C(=O)N[C@@H](CC(=O)O)C(=O)N[C@@H](CO)C(=O)N[C@@H](Cc2ccc(O)cc2)C(N)=O)C(C)C)NC(=O)[C@H](CCC(N)=O)NC(=O)[C@H](CCCNC(=N)N)NC(=O)[C@H](Cc2c[nH]c3ccccc23)NC1=O
Activity [10]: Non-Toxic | inhibition [11]: inactive

SMILES: CC(=O)N[C@@H](CO)C(=O)N[C@@H](Cc1c[nH]c2ccccc12)C(=O)N[C@@H](CCCNC(=N)N)C(=O)N[C@@H](CCC(N)=O)C(=O)N[C@@H](C)C(=O)N[C@@H](C)C(=O)N[C@@H](Cc1ccccc1)C(=O)N[C@H]1Cc2cn(nn2)CCC[C@@H](C(N)=O)NC(=O)[C@H](Cc2ccc(O)cc2)NC(=O)[C@H](CO)NC(=O)[C@H](CC(=O)O)NC1=O (Ac-SWRQAAF[Pra]DSY[Orn(N3)]-NH2; triazole 8-12)
inhibition [11]: inactive

SMILES: CC(=O)N[C@@H](CO)C(=O)N[C@@H](Cc1c[nH]c2ccccc12)C(=O)N[C@@H](CCCNC(=N)N)C(=O)N[C@@H](CCC(N)=O)C(=O)N[C@@H](C)C(=O)N[C@@H](C)C(=O)N[C@H]1Cc2cn(nn2)CCCC[C@@H](C(=O)O)NC(=O)[C@H](CO)NC(=O)[C@H](CC(=O)O)NC(=O)[C@H](C(C)C)NC1=O (Ac-SWRQAA[Pra]VDS[Lys(N3)]-OH; triazole 7-11)
inhibition [11]: inactive

SMILES: CC(=O)N[C@H]1CCc2cn(nn2)CCCC[C@@H](C(=O)N[C@@H](C)C(=O)N[C@@H](Cc2ccccc2)C(=O)N[C@H](C(=O)N[C@@H](CC(=O)O)C(=O)N[C@@H](CO)C(=O)N[C@@H](Cc2ccc(O)cc2)C(N)=O)C(C)C)NC(=O)[C@H](CCC(N)=O)NC(=O)[C@H](CCCNC(=N)N)NC(=O)[C@H](Cc2c[nH]c3ccccc23)NC1=O (Ac-[Hpra]WRQ[Lys(N3)]AFVDSY-NH2; triazole 1-5)
Activity [10]: Non-Toxic | inhibition [11]: Active

SMILES: CC(=O)N[C@H]1CCCCn2cc(nn2)C[C@@H](C(=O)N[C@@H](C)C(=O)N[C@@H](Cc2ccccc2)C(=O)N[C@H](C(=O)N[C@@H](CC(=O)O)C(=O)N[C@@H](CO)C(=O)N[C@@H](Cc2ccc(O)cc2)C(N)=O)C(C)C)NC(=O)[C@H](CCC(N)=O)NC(=O)[C@H](CCCNC(=N)N)NC(=O)[C@H](Cc2c[nH]c3ccccc23)NC1=O (Ac-[Lys(N3)]WRQ[Pra]AFVDSY-NH2; triazole 1-5)
Activity [10]: Non-Toxic | inhibition [11]: Active

SMILES: CC(=O)N[C@H]1Cc2cn(nn2)CCC[C@@H](C(=O)N[C@@H](C)C(=O)N[C@@H](Cc2ccccc2)C(=O)N[C@H](C(=O)N[C@@H](CC(=O)O)C(=O)N[C@@H](CO)C(=O)N[C@@H](Cc2ccc(O)cc2)C(N)=O)C(C)C)NC(=O)[C@H](CCC(N)=O)NC(=O)[C@H](CCCNC(=N)N)NC(=O)[C@H](Cc2c[nH]c3ccccc23)NC1=O (Ac-[Pra]WRQ[Orn(N3)]AFVDSY-NH2; triazole 1-5)
inhibition [11]: inactive

SMILES: CC(C)[C@H](NC(=O)[C@H](Cc1ccccc1)NC(=O)[C@H](C)NC(=O)[C@H](C)NC(=O)[C@H](CCC(N)=O)NC(=O)[C@H](CCCNC(=N)N)NC(=O)[C@H](Cc1c[nH]c2ccccc12)NC(=O)CCCCCNC(=O)[C@@H](N)CCCCN)C(=O)N[C@@H](CC(=O)O)C(=O)N[C@@H](CO)C(=O)N[C@@H](Cc1ccc(O)cc1)C(=O)O (H-K[Ahx]WRQAAFVDSY-OH)
inhibition [12]: Active

SMILES: CCCN(CCC)S(=O)(=O)c1ccc(C(=O)O)cc1 [PROBENECID]
Activity [13]: Non-Toxic | inhibition [14]: Active | inhibition [15]: Active | inhibition [16]: inactive

Now from value to compound, other results behind:

inhibition [1]: inactive | Stability [2]: Stable | inhibition [4]: Active | inhibition [6]: inactive | inhibition [7]: inactive | inhibition [8]: Dose-Dependent Effect
SMILES: CC(=O)N[C@@H](CO)C(=O)N[C@@H](Cc1c[nH]c2ccccc12)C(=O)N[C@@H](CCCNC(=N)N)C(=O)N[C@@H](CCC(N)=O)C(=O)N[C@@H](C)C(=O)N[C@H]1Cc2cn(nn2)CCCC[C@@H](C(=O)N[C@@H](Cc2ccc(O)cc2)C(N)=O)NC(=O)[C@H](CC(=O)O)NC(=O)[C@H](C(C)C)NC(=O)[C@H](Cc2ccccc2)NC1=O
inhibition [3]: Active | Activity [5]: Non-Toxic | Activity [9]: Non-Toxic

inhibition [11]: inactive
SMILES: CC(=O)N[C@@H](CO)C(=O)N[C@@H](Cc1c[nH]c2ccccc12)C(=O)N[C@@H](CCCNC(=N)N)C(=O)N[C@@H](CCC(N)=O)C(=O)N[C@@H](C)C(=O)N[C@@H]1Cc2cn(nn2)CCCC[C@@H](C(=O)N[C@@H](Cc2ccc(O)cc2)C(N)=O)NC(=O)[C@H](CC(=O)O)NC(=O)[C@H](C(C)C)NC(=O)[C@H](Cc2ccccc2)NC1=O
Activity [10]: Non-Toxic

inhibition [11]: inactive
SMILES: CC(=O)N[C@@H](CO)C(=O)N[C@@H](Cc1c[nH]c2ccccc12)C(=O)N[C@@H](CCCNC(=N)N)C(=O)N[C@@H](CCC(N)=O)C(=O)N[C@@H](C)C(=O)N[C@@H](C)C(=O)N[C@@H](Cc1ccccc1)C(=O)N[C@H]1Cc2cn(nn2)CCCC[C@@H](C(N)=O)NC(=O)[C@H](Cc2ccc(O)cc2)NC(=O)[C@H](CO)NC(=O)[C@H](CC(=O)O)NC1=O (Ac-SWRQAAF[Pra]DSY[Lys(N3)]-NH2; triazole 8-12)

inhibition [11]: Active
SMILES: CC(=O)N[C@@H](CO)C(=O)N[C@@H](Cc1c[nH]c2ccccc12)C(=O)N[C@@H](CCCNC(=N)N)C(=O)N[C@@H](CCC(N)=O)C(=O)N[C@@H](C)C(=O)N[C@H]1CCc2cn(nn2)CCCC[C@@H](C(=O)N[C@@H](Cc2ccc(O)cc2)C(N)=O)NC(=O)[C@H](CC(=O)O)NC(=O)[C@H](C(C)C)NC(=O)[C@H](Cc2ccccc2)NC1=O (Ac-SWRQA[Hpra]FVD[Lys(N3)]Y-NH2; triazole 6-10)
Activity [10]: Non-Toxic

inhibition [11]: Active
SMILES: CC(=O)N[C@@H](CO)C(=O)N[C@@H](Cc1c[nH]c2ccccc12)C(=O)N[C@@H](CCCNC(=N)N)C(=O)N[C@@H](CCC(N)=O)C(=O)N[C@@H](C)C(=O)N[C@H]1CCCCn2cc(nn2)C[C@@H](C(=O)N[C@@H](Cc2ccc(O)cc2)C(N)=O)NC(=O)[C@H](CC(=O)O)NC(=O)[C@H](C(C)C)NC(=O)[C@H](Cc2ccccc2)NC1=O (Ac-SWRQA[Lys(N3)]FVD[Pra]Y-NH2; triazole 6-10)
Activity [10]: Non-Toxic

inhibition [11]: inactive
SMILES: CC(=O)N[C@@H](CO)C(=O)N[C@@H](Cc1c[nH]c2ccccc12)C(=O)N[C@@H](CCCNC(=N)N)C(=O)N[C@@H](CCC(N)=O)C(=O)N[C@@H](C)C(=O)N[C@H]1Cc2cn(nn2)CCC[C@@H](C(=O)N[C@@H](Cc2ccc(O)cc2)C(N)=O)NC(=O)[C@H](CC(=O)O)NC(=O)[C@H](C(C)C)NC(=O)[C@H](Cc2ccccc2)NC1=O (Ac-SWRQA[Pra]FVD[Orn(N3)]Y-NH2; triazole 6-10)
